Consider eight compounds from PubChem BioAssay (NCI).

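Exposure lasted 48 hours, with cells grown in 96-well plates and compounds tested at five concentrations. TGI: total growth inhibition.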

What all share (experiment): NCI tumour cell line growth inhibition, 48 h
Test [1] relates to 786-0 renal.
The test system of test [2] is A549 NSCLC.
Test [3] relates to CCRF-CEM leukemia.
For test [4], the system named is HCT-15 colon.
Test [5] concerns HL-60(TB) leukemia.
Test [6] deals with HOP-62 NSCLC.
Test [7] deals with HT29 colon.
For test [8], the system named is KM12 colon.
In test [9] the test system is LOX IMVI melanoma.
Test [10] has as its system NCI-H522 lung.
The subject of test [11] is OVCAR-8 ovarian.
For test [12], the system named is SF-268 CNS.
Test [13] deals with SNB-19 CNS.
In test [14] the test system is SNB-75 CNS.
Test [15] deals with T-47D breast.

As for `CC(=O)NS(=O)(=O)c1ccc(NCc2cccc3c(=O)c4ccc(Cl)cc4oc23)cc1`, the TGI was above 100 µM in [1]; above 100 µM in test [2]; above 86.7 µM in [3]; above 55.4 µM in test [4]; 5.43 µM in [5]; 96.8 µM in test [6]. The TGI in test [7] is above 100 µM; in test [8], above 100 µM; in test [9], above 100 µM; in test [10] it was above 83.8 µM; in [11], above 49.1 µM; in test [12], above 100 µM. Besides, the TGI in test [13], in test [14] and in test [15] was above 100 µM each time.

On to `O=C1C=C(c2ccccc2)OC1C1Sc2ccccc2NC1=O` (stereo not given), for which the TGI is above 66.3 µM in [1]; above 44.7 µM in [2]; above 24.4 µM in test [3]; above 100 µM in [4]; 13.6 µM in test [5]; above 19.8 µM in [6]. The TGI in [7] was above 100 µM; in [8] it was above 100 µM; in [9] it was above 64.6 µM; in test [10], 33.8 µM; in [11], above 46.4 µM; in [12], above 100 µM. Moreover, the TGI was above 82.8 µM in test [13], 50.3 µM in test [14] and above 100 µM in test [15].

Regarding `COC(=O)[C@@H]1C[C@@H](O)CN1C(=O)c1ccc([N+](=O)[O-])cc1[N+](=O)[O-]`, the TGI in test [1], in test [2], in test [3], in test [4], in test [5] and in test [6] was above 100 µM each time. In addition, the TGI in test [7], in [8], in test [9], in test [10], in [11] and in test [12] was above 100 µM each time. Also, the TGI in test [13], in test [14] and in test [15] was above 100 µM in each case.

As for `CCN(CC)C1Oc2cc3c(cc2C(c2cc(OC)c(O)c(OC)c2)C1C)OCO3` (stereo not given), the TGI is 29.1 µM in [1]; 60 µM in [2]; 42.1 µM in test [3]; above 38.6 µM in test [4]; 11.9 µM in test [5]; 39.6 µM in test [6]. Besides, the TGI in test [7] is 22.2 µM; in [8], 22.5 µM; in test [9], 29 µM; in test [10], 11 µM; in test [11] it was 38.8 µM; in test [12], above 100 µM. In addition, the figures for the TGI in [13], in test [14] and in [15] were 44.2 µM, 23.9 µM and above 73.4 µM, respectively.

On to `CC(=O)OCC1(C)C(O)CCC2(C)C1CCC1CC3CC12CCC3(O)CO` (stereo not given), for which the TGI in test [1], in [2], in [3], in [4], in test [5] and in [6] was above 100 µM in each case. Further, the TGI in test [7], in test [8], in test [9], in test [10], in test [11] and in test [12] was above 100 µM throughout. Also, the TGI in [13], in test [14] and in test [15] was above 100 µM each time.

As to `O=C1Nc2ccc(Br)cc2/C1=N/S(=O)(=O)O`, the TGI was 68.2 µM in test [1]; 78.9 µM in test [2]; 35.6 µM in test [3]; above 100 µM in [4]; 46.7 µM in [5]; above 100 µM in test [6]. For the same compound, the TGI in test [7] was above 100 µM; in [8] it was above 100 µM; in [9], 28 µM; in [10], above 100 µM; in test [11], above 100 µM; in test [12], above 100 µM. Besides, the TGI in test [13], in [14] and in test [15] was above 100 µM each time.

In the case of `COC(=O)/C=C/CCC#Cc1ccccc1C#CCC/C=C/C(=O)OC`, the TGI is 53.2 µM in test [1]; above 100 µM in [2]; 24.3 µM in test [3]; above 100 µM in [4]; 9.63 µM in test [5]; above 100 µM in [6]. Moreover, the TGI is 40.4 µM in [7]; above 100 µM in [8]; 64 µM in test [9]; 18.6 µM in [10]; 26 µM in test [11]; above 100 µM in test [12]. Also, the TGI in [13] is above 100 µM; in test [14] it was 19 µM; in test [15] it was 97.9 µM.

With `C=C(C)C1CC[C@@](C)(O)[C@H](C#N)C1` (stereo not given in full), the TGI in test [1], in test [2], in [3], in test [4], in test [5] and in [6] was above 100 µM in each case. Also, the TGI in test [7], in test [8], in test [9], in test [10], in test [11] and in test [12] was above 100 µM in each case. For the same compound, the TGI in test [13], in test [14] and in [15] was above 100 µM in each case.
